In publication PMC11541474, “Toward New Therapeutics for Visceral Leishmaniasis: Efficacy and Mechanism of Action of Amides Inspired by Gibbilimbol B” (ACS Omega, 2024):

What was measured:
[1] = test system: L. (L.) infantum intracellular amastigotes; test: ex-vivo assay using intracellular amastigotes of L. (L.) infantum; format: cell-based, Leishmania (L.) infantum; conditions: for EC50: Leishmania infantum, L. (L.) infantum intracellular amastigotes, read-out: Ec50 Amastigote (μm) ± SD; for S.I. amastigote (selectivity index): CC50 against NCTC cells/EC50 against amastigotes
Experimental: (§1) Evaluation of in vitro activity against promastigote and amastigote forms of L. (L.) infantum was performed as previously reported assays.[40]−[43] The CC50 and EC50 values were calculated using sigmoidal dose–response curves using Graph Pad Prism 5.0 software. One-way ANOVA testing with Tukey’s multiple comparison tests were used for evaluation of the statistical significance (p-value) of differences between the samples, which were tested in duplicate and all assays were repeated at least twice.

[2] = test system: L. (L.) infantum promastigotes; test: in vitro activity against promastigote forms of L. (L.) infantum; format: cell-based, Leishmania (L.) infantum; conditions: for EC50: Leishmania infantum, L. (L.) infantum promastigotes, read-out: Ec50 Promastigote (μm) ± SD
Experimental: as §1

[3] = in vitro mammalian toxicity against NCTC cells; format: cell-based; conditions: 50% cytotoxic concentration, read-out: Cc50 Nctc (μm) ± SD
Experimental: as §1, with “mammalian toxicity” for “activity”, “NCTC cells” for “promastigote and amastigote forms of L. (L.) infantum”, “described.[40] The selectivity index was determined using the following equation: CC50 against NCTC cells/EC50 against amastigotes.[44]” for “reported assays.[40]−[43]”

[4] = test system: L. (L.) infantum promastigotes; format: cell-based, Leishmania (L.) infantum
Description: Changes in the plasma membrane integrity of Leishmania spp. can lead to cell death due to pore formation, pH imbalance, and nutrient-transport failure. Initially, the fluorescent probe Sytox Green was employed to analyze the permeability of the plasma membrane. […] Untreated parasites were used as a negative control for normalization (0% permeabilization) whereas the nonionic surfactant Triton X-100 was used for as positive control (100% permeabilization).
Figure 4 Plasma membrane permeability in L. (L.) infantum promastigotes after 4 h of treatment with compound (A) 9 (141.5 μM) or (B) 10 (110.1 μM), using the fluorescent probe Sytox Green (p < 0.0001). Negative control: untreated parasites; positive control: Triton X-100 (TX-100).
Assays for determination of plasma membrane integrity of L. (L.) infantum were conducted as previously reported.[46] Briefly, compounds 9 (141.5 μM) and 10 (110.1 μM) were added to different wells and the resulting fluorescence was measured using a fluorimetric microplate reader (FilterMax F5Multi-Mode, Molecular Devices). Triton X-100 (0.5%, v/v) and untreated parasites were used as positive negative controls, respectively.[47]

[5] = test system: L. (L.) infantum promastigotes; format: cell-based, Leishmania (L.) infantum; conditions: 9 at 141.5 μM, 10 at 110.1 μM, after 240 min
Experimental: Figure 5 Evaluation of ROS in promastigotes of L. (L.) infantum treated with compounds 9 (141.5 μM) or 10 (110.1 μM). […]
Measurements of ROS were conducted as previously reported.[48] Briefly, promastigotes were treated with compounds 9 (141.5 μM) or 10 (110.1 μM) in HBSS+Glu at 24 °C using H2DCFDA (Molecular Probes). Fluorescence was measured using a fluorimetric microplate reader (FilterMax F5Multi-Mode, Molecular Devices) with excitation and emission filters at 485 and 520 nm, respectively.[48] Untreated and treated parasites (H2O2 - 40 μM) were used as negative and positive controls, respectively.

EC50 [1]	EC50 [2]	Molecule	activity against promastigotes (in words) [2]	CC50 [3]	permeabilization of the plasma membrane (Sytox Green) [4]	S.I. amastigote (selectivity index) [1]	ROS levels compared with negative control (H2DCFDA) [5]
> 100 µM	> 100 µM	CCC/C=C/CCCNC(=O)c1ccccc1 [Compound 1, (E)-N-(Oct-4-en-1-yl)benzamide]	inactive	> 200 µM	–	–	–
–	–	Triton X-100 [reference compound]	–	–	maximum permeabilization	–	–
5.1 ± 1.9 µM	> 150 µM	CCCCC(CC)CNC(=O)c1ccc(C(C)(C)C)cc1 (centres unmarked) [Compound 12, N-(2-Ethylhexyl)-4-(tert-butyl)benzamide]	inactive	> 200 µM	–	>39.2	–
–	–	[N-]=[N+]=[N-].[Na+] [Sodium azide, reference compound]	–	–	–	–	maximum production of ROS
> 100 µM	66 ± 1 µM	CCC/C=C/CCCNC(=O)c1ccc(C(C)(C)C)cc1 [Compound 6, (E)-4-(tert-butyl)-N-(oct-4-en-1-yl)benzamide]	–	> 200 µM	–	–	–
> 100 µM	66.9 ± 6.4 µM	CCC/C=C/CCCNC(=O)c1ccc(C)cc1 [Compound 2, (E)-4-Methyl-N-(oct-4-en-1-yl)benzamide]	–	> 200 µM	–	–	–
> 100 µM	64.1 ± 3.5 µM	CCCCC(CC)CNC(=O)c1ccc(F)cc1 (centres unmarked) [Compound 8, N-(2-Ethylhexyl)-4-fluorobenzamide]	–	156.8 ± 1 µM	–	–	–
> 100 µM	73.3 ± 4.3 µM	CCC/C=C/CCCNC(=O)c1ccc(Cl)cc1 [Compound 5, (E)-4-Chloro-N-(oct-4-en-1-yl)benzamides]	–	> 200 µM	–	–	–
6.5 ± 3 µM	5.1 ± 0.6 µM	CCCCCCCCCCCCCCCCOP(=O)([O-])OCC[N+](C)(C)C [Miltefosine, miltefosine, reference compound]	–	120 ± 4.2 µM	–	18.4	–
> 100 µM	66.3 ± 6 µM	CCCCC(CC)CNC(=O)c1ccc(C)cc1 (centres unmarked) [Compound 11, N-(2-Ethylhexyl)-4-methylbenzamide]	–	> 200 µM	–	–	–
> 100 µM	49.8 ± 4 µM	CCC/C=C/CCCNC(=O)c1ccc([N+](=O)[O-])cc1 [Compound 7, (E)-4-Nitro-N-(oct-4-en-1-yl)benzamide]	–	158 ± 37.3 µM	–	–	–
95.1 ± 1.5 µM	99.4 ± 2.1 µM	CCCCCC/C=C/CCc1ccc(O)cc1 [Gibbilimbol B, gibbilimbol B]	–	> 200 µM	–	>2.1	–
> 100 µM	67.4 ± 1.3 µM	CCC/C=C/CCCNC(=O)c1ccc(F)cc1 [Compound 4, (E)-4-Fluoro-N-(oct-4-en-1-yl)benzamide]	–	> 200 µM	–	–	–
> 100 µM	> 150 µM	CCC/C=C/CCCNC(=O)c1ccc(OC)cc1 [Compound 3, (E)-4-Methoxy-N-(oct-4-en-1-yl)benzamide]	inactive	> 200 µM	–	–	–
